Molecular target: T1, papain (Carica papaya, UniProt P00784)
T1 construct: purchased Sigma Chem. Co
T1 sequence (P00784 134-345): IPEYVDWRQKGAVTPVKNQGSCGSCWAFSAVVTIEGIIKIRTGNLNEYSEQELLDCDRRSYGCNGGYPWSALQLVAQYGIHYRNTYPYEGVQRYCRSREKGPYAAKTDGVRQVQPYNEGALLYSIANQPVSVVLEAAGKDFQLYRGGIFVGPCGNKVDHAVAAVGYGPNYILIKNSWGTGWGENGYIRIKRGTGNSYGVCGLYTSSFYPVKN
Experiment: Papain inhibitory activity (milk casein digestion)
Type: biochemical
Conditions: papain 80 μg/ml 0.5 ml, cysteine, pH 6.8, 1% milk casein, 40° C., 10 minutes
Method: Papain inhibitory activity of the compounds of this invention was assayed as follows: To 0.5 ml of a solution of papain (80 μg/ml, Sigma Chem. Co., 2x cry.), were added 0.25 ml of 40 mM cysteine dissolved in 20 mM disodium ethylenediamine tetraacetic acid solution adjusted pH to 6.8 with sodium hydroxide and 0.25 ml of 33 mM phosphate buffer (pH 6.8) with or without inhibitor. After incubation at 40° C. for 15 minutes, the resulting mixture was added to 5 ml of 1% milk casein solution in the same buffer as described above, and further incubated at 40° C. for 10 minutes. Then the mixture was mixed with 5 ml of 0.44 M trichloroacetic acid solution and followed by filtration with a sheet of Toyo filter paper No. 4. The extinction of the filtrate was read at 280 nm. The percent inhibition was calculated from the formula, 100 x (B-A)/B; wherein B stands for the absorbance without inhibitor and A for the absorbance with inhibitor. The compound Nos. in Table 1 are as defined in Examples as described hereinafter.

| Structure (SMILES) | ID50 (amount of inhibitor for 50% inhibition) |
| --- | --- |
| CCOC(=O)[C@H](Cc1ccccc1)NC(=O)C1OC1C(=O)OCc1ccccc1Cl (stereo partly drawn) [EP-160, N-(3-o-chlorobenzyloxycarbonyloxirane-2-carbonyl)-L-phenylalanine ethyl ester] | 0.30 γ |
| O=C(OCC1C=CCC1)C1OC1C(=O)OCC1C=CCC1 (centres unmarked) [EP-71, di-2-cyclopentenemethyl epoxysuccinate] | 0.40 γ |
| O=C(O)[C@H]1O[C@@H]1C(=O)OCc1ccc(Br)c(Cl)c1 (relative stereo) [EP-126, 3'-chloro-4'-bromobenzyl potassium epoxysuccinate] | 0.12 γ |
| O=C(O)[C@H]1O[C@@H]1C(=O)OCc1ccccc1F (relative stereo) [EP-124, o-fluorobenzyl potassium epoxysuccinate] | 0.10 γ |
| O=C(O)[C@@H]1O[C@H]1C(=O)OCCCC1CCCCC1 (relative stereo) [EP-66, 3-cyclohexanepropyl potassium epoxysuccinate] | 0.08 γ |
| O=C(O)[C@@H]1O[C@H]1C(=O)OCC1CCCCC1 (relative stereo) [EP-42, cyclohexanemethyl potassium epoxysuccinate] | 0.06 γ |
| CCCOC(=O)[C@H]1O[C@@H]1C(=O)O (relative stereo) [EP-138, n-propyl potassium epoxysuccinate] | 0.82 γ |
| O=C(O)[C@@H]1O[C@H]1C(=O)OCC1CCCC1 (relative stereo) [EP-44, cyclopentanemethyl potassium epoxysuccinate] | 0.07 γ |
| N=C(NCCC[C@H](NC(=O)C1OC1C(=O)OCc1ccccc1)C(=O)OCc1ccccc1)N[N+](=O)[O-] (stereo partly drawn) [EP-178, N-(3-benzyloxycarbonyloxirane-2-carbonyl)-N^G -nitro-L-arginine benzyl ester] | 4.63 γ |
| O=C(OC1CCCCCCC1)[C@@H]1O[C@H]1C(=O)OC1CCCCCCC1 (relative stereo) [EP-35, dicyclooctyl epoxysuccinate] | 0.98 γ |
| C[C@@H]1CCCC[C@H]1OC(=O)[C@@H]1O[C@H]1C(=O)O (relative stereo) [EP-6, 2'-trans-methylcyclohexyl potassium epoxysuccinate] | 0.09 γ |
| O=C(OC1CC(Cl)CCC1Br)C1OC1C(=O)OC1CC(Cl)CCC1Br (stereo not drawn) [EP-11, di-2'-cis-bromo-5'-trans-chlorocyclohexyl epoxysuccinate] | 2.50 γ |
| O=C(OC1CCC(Cl)C1)C1OC1C(=O)OC1CCC(Cl)C1 (stereo not drawn) [EP-29, di-3'-cis-chlorocyclopentyl epoxysuccinate] | 3.12 γ |
| O=C(O)[C@@H]1O[C@H]1C(=O)OCCCC1CCCC1 (relative stereo) [EP-64, 3-cyclopentanepropyl potassium epoxysuccinate] | 0.10 γ |
| O=C(OCCC1CCCC1)[C@@H]1O[C@H]1C(=O)OCCC1CCCC1 (relative stereo) [EP-59, di-2-cyclopentaneethyl epoxysuccinate] | 0.18 γ |
| O=C(OCc1ccc(I)cc1)[C@@H]1O[C@H]1C(=O)OCc1ccc(I)cc1 (relative stereo) [EP-111, di-p-iodobenzyl epoxysuccinate] | 2.91 γ |
| O=C(O)[C@H]1O[C@@H]1C(=O)OCCc1ccccc1 (relative stereo) [EP-130, 2'-phenylethyl potassium epoxysuccinate] | 0.10 γ |
| CCOC(=O)CNC(=O)[C@@H]1O[C@H]1C(=O)OCc1ccc2c(Br)cccc2c1 (relative stereo) [EP-220, N-[3-(5'-bromo-2-naphthylmethoxy)-carbonyloxirane-2-carbonyl]-glycine ethyl ester] | 9.86 γ |
| O=C(O)[C@@H]1O[C@H]1C(=O)OCC1CC1 (relative stereo) [EP-40, cyclopropanemethyl potassium epoxysuccinate] | 0.34 γ |
| CCCCOC(=O)[C@H](CCCNC(=O)OCc1ccccc1)NC(=O)C1OC1C(=O)[O-].[K+] (stereo partly drawn) [EP-199, N^α -(3-carboxyoxirane-2-carbonyl)-N^δ -carbobenzoxy-L-ornithine n-butyl ester potassium salt] | 0.14 γ |
| O=C(NCCCC[C@H](NC(=O)C1OC1C(=O)OCCc1ccccc1)C(=O)OCc1ccccc1)OCc1ccccc1 (stereo partly drawn) [EP-187, N^α -(3-phenethyloxycarbonyloxirane-2-carbonyl)-N^ε -carbobenzoxy-L-lysine benzyl ester] | 1.40 γ |

| Structure (SMILES) | ID50 (amount of inhibitor for 50% inhibition) |
| --- | --- |
| O=C(O)C1OC1C(=O)OC1CC(Cl)CCC1Br (stereo not drawn) [EP-12, 2'-cis-bromo-5'-trans-chlorocyclohexyl potassium epoxysuccinate] | 0.07 γ |
| CCOC(=O)C1OC1C(=O)N[C@@H](CC(N)=O)C(=O)OCc1ccccc1 (stereo partly drawn) [EP-194, N-(3-ethoxycarbonyloxirane-2-carbonyl)-L-asparagine benzyl ester] | 22.60 γ |
| O=C(OCC1CC1)[C@@H]1O[C@H]1C(=O)OCC1CC1 (relative stereo) [EP-39, dicyclopropanemethyl epoxysuccinate] | 4.39 γ |
| O=C(O)C1OC1C(=O)OCC1CC=CCC1 (centres unmarked) [EP-70, 3-cyclohexenemethylpotassium epoxysuccinate] | 0.08 γ |
| O=C(OCc1cc(Cl)ccc1Cl)[C@H]1O[C@@H]1C(=O)OCc1cc(Cl)ccc1Cl (relative stereo) [EP-127, di-2',5'-dichlorobenzyl epoxysuccinate] | 2.00 γ |
| O=C(OCc1ccccc1F)[C@H]1O[C@@H]1C(=O)OCc1ccccc1F (relative stereo) [EP-123, di-o-fluorobenzyl epoxysuccinate] | 0.30 γ |
| O=C(OCCCC1CCCC1)[C@@H]1O[C@H]1C(=O)OCCCC1CCCC1 (relative stereo) [EP-63, di-3-cyclopentanepropyl epoxysuccinate] | 54.82 γ |
| O=C(O)[C@H]1O[C@@H]1C(=O)OCc1ccc(I)cc1 (relative stereo) [EP-112, p-iodobenzyl potassium epoxysuccinate] | 0.32 γ |
| O=C(NCCC[C@H](NC(=O)C1OC1C(=O)OCc1ccccc1)C(=O)OCc1ccccc1)OCc1ccccc1 (stereo partly drawn) [EP-182, N^α -(3-benzyloxycarbonyloxirane-2-carbonyl)-N^δ -carbobenzoxy-L-ornithine benzyl ester] | 5.95 γ |
| O=C(N[C@@H](Cc1ccc(O)cc1)C(=O)OCc1ccccc1)C1OC1C(=O)OCC1CC=CCC1 (stereo partly drawn) [EP-211, N-[3-(3'-cyclohexen-1-yl)-methoxycarbonyloxirane-2-carbonyl]-L-tyrosine benzyl ester] | 0.61 γ |
| CC1(C)C2CCC1(C)C(OC(=O)C1OC1C(=O)OC1CC3CCC1(C)C3(C)C)C2 (centres unmarked) [EP-53, dibornyl epoxysuccinate] | 0.45 γ |
| COC(=O)[C@H](C)NC(=O)C1OC1C(=O)O[C@H]1CC[C@H](C)CC1 (stereo partly drawn) [EP-215, N-[3-(4'-trans-methylcyclohexyloxy)-carbonyloxirane-2-carbonyl]-L-alanine methyl ester] | 3.55 γ |
| CC1CCCC(C)C1OC(=O)C1OC1C(=O)O (stereo not drawn) [EP-14, 2',6'-trans-dimethylcyclohexyl potassium epoxysuccinate] | 0.10 γ |
| Cc1ccc(COC(=O)[C@@H]2O[C@H]2C(=O)OCc2ccc(C)cc2)cc1 (relative stereo) [EP-89, di-p-methylbenzyl epoxysuccinate] | 1.39 γ |
| O=C(OCCCCC1CCCCC1)[C@@H]1O[C@H]1C(=O)OCCCCC1CCCCC1 (relative stereo) [EP-67, di-4-cyclohexanebutyl epoxysuccinate] | 93.28 γ |
| CCOC(=O)[C@H](Cc1ccccc1)NC(=O)C1OC1C(=O)OCc1ccccc1 (stereo partly drawn) [EP-159, N-(3-benzyloxycarbonyloxirane-2-carbonyl)-L-phenylalanine ethyl ester] | 0.27 γ |
| Cc1ccccc1COC(=O)[C@@H]1O[C@H]1C(=O)OCc1ccccc1C (relative stereo) [EP-91, di-o-methylbenzyl epoxysuccinate] | 0.35 γ |
| CCOC(=O)[C@H]1O[C@@H]1C(=O)NCC(=O)OCc1ccccc1 (relative stereo) [EP-154, N-(3-ethoxycarbonyloxirane-2-carbonyl)-glycine benzyl ester] | 43.90 γ |
| N=C(N)NCCC[C@H](NC(=O)C1OC1C(=O)O)C(=O)O (stereo partly drawn) [EP-202, N-(3-carboxyoxirane-2-carbonyl)-L-arginine] | 21.93 γ |
| O=C(OCc1ccc(Br)cc1)[C@@H]1O[C@H]1C(=O)OCc1ccc(Br)cc1 (relative stereo) [EP-113, di-p-bromobenzyl epoxysuccinate] | 0.99 γ |
